{
  "source": "patent US8080115B2",
  "about": "“Method for the surface treatment of a metallic or fibrous material” (priority 2005, dated 2011)",
  "key": {"[1]": {"assay": "Risks of harmfulness for the aquatic environment / bioaccumulation", "design": "key: −=harmful demonstrated; +=slight risk; ++=very slight risks", "excerpt": "For each of Compositions A to E, the characteristics of odor (“ODOR”), of stability at alkaline pH, i.e. at a pH of 9 (“STAB.”) and of risks of harmfulness in terms of protection of the aquatic environment/bioaccumulation (“BIO.”) are taken up in the table below according to the following notation: […]"}, "[2]": {"assay": "Degreasing of steel sheets with an impregnated cotton pad", "design": "key to degreasing grade: Grade=1: visible residual presence of a thin greasy film; Grade=2: visible residual presence of small greasy spots; Grade=3: visible absence of fatty substance (degreased sheet)", "conditions": "for OVERALL GRADE (/10): from the number of the 9 fatty substances with grade 3", "excerpt": "Steel sheets covered with a thin, uniform film of different greases, lubricants or straight cutting oils commonly used in the metal-processing industry are degreased.\nThe performances of these 7 compositions are compared for 9 commercial greases and oils of different chemical mixtures.\nFor the purpose of the evaluation, a cotton pad is impregnated with the test composition and then this cotton pad is brought into contact with a thin and uniform film of fatty substances deposited on the surface of a steel sheet. This operation is repeated twice. The steel sheet is subsequently rinsed with cold water, so as to remove the solvent. The degreasing effect is subsequently graded as follows:\nGrade=1: visible residual presence of a thin greasy film,\nGrade=2: visible residual presence of small greasy spots,\nGrade=3: visible absence of fatty substance (degreased sheet).\nFor each of Compositions 1 to 7, an “overall grade” is assigned to the function of the number of fatty substances for which the composition in question has not made it possible to achieve the grade of 3. This overall grade, with a maximum value of 10, is assigned in the following way:\nFor each Composition 1 to 7, the grade obtained a) for the specific degreasing of each of the fatty substances FS1 to FS9 deposited (grade from 1 to 3) and b) overall, as degreasing composition (grades from 6/10 to 10/10) is thus taken up in the table below."}, "[3]": {"conditions": "compulsory labelings R51/R53; cited from earlier work"}, "[4]": {"assay": "Flammability / flashpoint of the compositions", "type": "physicochemical"}, "[5]": {"tested_on": "aquatic organisms, such as bacteria, freshwater algae, daphnia and freshwater fish", "assay": "Toxicity for aquatic organisms"}, "[6]": {"tested_on": "man", "conditions": "previously described advantages; cited from earlier work"}, "[7]": {"assay": "Ready biodegradability, OECD No. 301 A (DOC Die-away Test)", "conditions": "at 28 days"}, "[8]": {"assay": "Aerobic inherent biodegradability, OECD 302 B (Zahn-Wellens EMPA Test)", "conditions": "at 28 days", "excerpt": "The biodegradability is here measured according to the process, hereinafter denoted “OECD 302 B”, recommended by the OECD under the following number and following title: No. 302 B—Inherent Biodegradability: Zahn—Wellens EMPA Test."}, "[9]": {"conditions": "FS 2 = mixture of petroleum mineral oils"}, "[10]": {"conditions": "FS 4 = molybdenum disulfide grease"}, "[11]": {"conditions": "FS 5 = mixture of mineral oil, of paraffinic hydrocarbons and of graphite"}, "[12]": {"conditions": "FS 6 = polydimethylsiloxane oil"}, "[13]": {"conditions": "FS 7 = mutifraction oily mixture"}, "[14]": {"conditions": "FS 8 = biostable polyvalent microemulsion"}, "[15]": {"conditions": "FS 9 = nonchlorinated special lubricant"}},
  "data": [
    {"compound": "2,2,4-trimethyl-1,3-pentanediol monoisobutyrate [Composition A]", "values": [
      {"measurement": "BIO. (risks of harmfulness, protection of the aquatic environment/bioaccumulation)", "setting": "[1]", "value": "−"}
    ]},
    {"compound": "ClC=C(Cl)Cl", "note": "[Composition 1, trichloroethylene]", "values": [
      {"measurement": "degreasing grade", "setting": "[2]; FS 1 = paraffinic mineral oil", "value": 3},
      {"measurement": "degreasing grade", "setting": "[2]; [9]", "value": 3},
      {"measurement": "degreasing grade", "setting": "[2]; FS 3 = food-grade mineral oil", "value": 3},
      {"measurement": "degreasing grade", "setting": "[2]; [10]", "value": 3},
      {"measurement": "degreasing grade", "setting": "[2]; [11]", "value": 3},
      {"measurement": "degreasing grade", "setting": "[2]; [12]", "value": 3},
      {"measurement": "degreasing grade", "setting": "[2]; [13]", "value": 3},
      {"measurement": "degreasing grade", "setting": "[2]; [14]", "value": 3},
      {"measurement": "degreasing grade", "setting": "[2]; [15]", "value": 3},
      {"measurement": "OVERALL GRADE (/10)", "setting": "[2]", "value": "10 /10"},
      {"measurement": "toxicity for the environment", "setting": "[3]", "value": "a certain toxicity"}
    ]},
    {"compound": "ClCCl", "note": "[Composition 2, dichloromethane]", "values": [
      {"measurement": "degreasing grade", "setting": "[2]; FS 1 = paraffinic mineral oil", "value": 3},
      {"measurement": "degreasing grade", "setting": "[2]; [9]", "value": 3},
      {"measurement": "degreasing grade", "setting": "[2]; FS 3 = food-grade mineral oil", "value": 3},
      {"measurement": "degreasing grade", "setting": "[2]; [10]", "value": 3},
      {"measurement": "degreasing grade", "setting": "[2]; [11]", "value": 3},
      {"measurement": "degreasing grade", "setting": "[2]; [12]", "value": 3},
      {"measurement": "degreasing grade", "setting": "[2]; [13]", "value": 3},
      {"measurement": "degreasing grade", "setting": "[2]; [14]", "value": 3},
      {"measurement": "degreasing grade", "setting": "[2]; [15]", "value": 3},
      {"measurement": "OVERALL GRADE (/10)", "setting": "[2]", "value": "10 /10"},
      {"measurement": "toxicity for the environment", "setting": "[3]", "value": "a certain toxicity"}
    ]},
    {"compound": "C=C(C)[C@H]1CC=C(C)CC1", "note": "[Composition 3, dipentene]", "values": [
      {"measurement": "degreasing grade", "setting": "[2]; FS 1 = paraffinic mineral oil", "value": 3},
      {"measurement": "degreasing grade", "setting": "[2]; [9]", "value": 3},
      {"measurement": "degreasing grade", "setting": "[2]; FS 3 = food-grade mineral oil", "value": 3},
      {"measurement": "degreasing grade", "setting": "[2]; [10]", "value": 3},
      {"measurement": "degreasing grade", "setting": "[2]; [11]", "value": 3},
      {"measurement": "degreasing grade", "setting": "[2]; [12]", "value": 3},
      {"measurement": "degreasing grade", "setting": "[2]; [13]", "value": 3},
      {"measurement": "degreasing grade", "setting": "[2]; [14]", "value": 2},
      {"measurement": "degreasing grade", "setting": "[2]; [15]", "value": 3},
      {"measurement": "OVERALL GRADE (/10)", "setting": "[2]", "value": "9 /10"},
      {"measurement": "flashpoint", "setting": "[4]", "value": 48, "unit": "°C"}
    ]},
    {"compound": "CCOC(=O)C(C)O", "note": "(stereo not shown) [Composition 4, ethyl lactate]", "values": [
      {"measurement": "degreasing grade", "setting": "[2]; FS 1 = paraffinic mineral oil", "value": 3},
      {"measurement": "degreasing grade", "setting": "[2]; [9]", "value": 3},
      {"measurement": "degreasing grade", "setting": "[2]; FS 3 = food-grade mineral oil", "value": 3},
      {"measurement": "degreasing grade", "setting": "[2]; [10]", "value": 3},
      {"measurement": "degreasing grade", "setting": "[2]; [11]", "value": 2},
      {"measurement": "degreasing grade", "setting": "[2]; [12]", "value": 3},
      {"measurement": "degreasing grade", "setting": "[2]; [13]", "value": 3},
      {"measurement": "degreasing grade", "setting": "[2]; [14]", "value": 2},
      {"measurement": "degreasing grade", "setting": "[2]; [15]", "value": 3},
      {"measurement": "OVERALL GRADE (/10)", "setting": "[2]", "value": "8 /10"},
      {"measurement": "flashpoint", "setting": "[4]", "value": 46, "unit": "°C"}
    ]},
    {"compound": "CO[C@H]1CO[C@H]2[C@@H]1OC[C@H]2OC", "note": "[Composition 5, dimethyl isosorbide]", "values": [
      {"measurement": "toxicity for aquatic organisms", "setting": "[5]", "value": "absence of toxicity for aquatic organisms"},
      {"measurement": "irritant nature and toxicity to man", "setting": "[6]", "value": "absence of irritant nature and of toxicity to man"},
      {"measurement": "ready biodegradability", "setting": "[7]", "value": "~25", "unit": "%"},
      {"measurement": "aerobic inherent biodegradability", "setting": "[8]", "value": "~36", "unit": "%"},
      {"measurement": "BIO. (risks of harmfulness, protection of the aquatic environment/bioaccumulation)", "setting": "[1]", "value": "++"},
      {"measurement": "degreasing grade", "setting": "[2]; FS 1 = paraffinic mineral oil", "value": 3},
      {"measurement": "degreasing grade", "setting": "[2]; [9]", "value": 3},
      {"measurement": "degreasing grade", "setting": "[2]; FS 3 = food-grade mineral oil", "value": 2},
      {"measurement": "degreasing grade", "setting": "[2]; [10]", "value": 3},
      {"measurement": "degreasing grade", "setting": "[2]; [11]", "value": 2},
      {"measurement": "degreasing grade", "setting": "[2]; [12]", "value": 2},
      {"measurement": "degreasing grade", "setting": "[2]; [13]", "value": 3},
      {"measurement": "degreasing grade", "setting": "[2]; [14]", "value": 2},
      {"measurement": "degreasing grade", "setting": "[2]; [15]", "value": 3},
      {"measurement": "OVERALL GRADE (/10)", "setting": "[2]", "value": "6 /10"},
      {"measurement": "flashpoint", "setting": "[4]", "value": 120, "unit": "°C"}
    ]}
  ]
}
